Patent publication US20240366809A1, “INHIBITOR OF PROSTATE SPECIFIC MEMBRANE ANTIGEN AND PHARMACEUTICAL USE THEREOF” (TIANJIN HENGRUI MEDICINE CO., LTD., priority 2021, published 2024)

Legend:
[1] = target: T1, rhPSMA (Homo sapiens (Human), UniProt Q04609); test: Tests for inhibitory activity against PSMA (Test Example 1); type: biochemical; conditions: rhPSMA 50 ng/well, substrate N-Acetyl-Asp-Glu, 37° C. 1 h
Experimental: • 1. Multifunctional microplate reader (SPARK, TECAN) • 2. rhPSMA (R&D, 4234-ZN) • 3. N-Acetyl-Asp-Glu (Sigma, A5930) • 4. OPA (Sigma, P0657)
PSMA inhibitors can bind to the enzyme PSMA to prevent the enzyme PSMA from decomposing the substrate N-Acetyl-Asp-Glu. In this experiment, the extent to which the substrate was decomposed and the resulting ultraviolet absorption changes were measured to evaluate the capacities of the PSMA inhibitors to bind to the enzyme PSMA, and the activity of the compounds was evaluated with IC50 values.
(§1) Buffer 1 (50 mM HEPES, 0.1 M NaCl, pH 7.5) was used to prepare a 0.4 μg/mL rhPSMA solution and a 40 μM solution of the substrate N-Acetyl-Asp-Glu. rhPSMA was mixed with the small molecules to be tested in a 96-well plate, with a constant rhPSMA content of 50 ng/well maintained. Meanwhile, the small molecules were step-wise diluted to final concentrations of 1 μM, 100 nM, 33.3 nM, 11.1 nM, 3.7 nM, 1.2 nM, 0.41 nM, 0.137 nM, 0.045 nM, and 0 nM. In addition, a positive control was set up using PSMA-617. The rhPSMA-small molecules were taken at 40 μL/well and well mixed with the 40 μM solution of the substrate N-Acetyl-Asp-Glu (40 μL/well). The mixtures were incubated at 37° C. in the dark for 1 h, were heated at 70° C. for 5 min to quench the reactions, and were cooled to room temperature. Buffer 2 (0.2 M NaOH, 0.1% beta-Mercaptoethanol) was used to prepare a 15 mM OPA solution. The OPA solution was added to the reaction systems at 80 μL/well and well mixed, and then the plate was incubated at room temperature for 10 min. The mixtures were taken at 100 μL/well and added to a 96-well Flat Black. With the excitation wavelength set to 330 nm and the emission wavelength to 465 nm, the intensity of signals was measured. IC50 values were obtained from dose-response curves.
The capacities of the compounds of the present disclosure to bind to the enzyme GCPII can be measured through the assay described above.

[2] = target: T1, rhPSMA; test: Affinity assays using enzyme activity method (Test Example 2); type: biochemical; conditions: for Ratio to PSMA-617: ratio of IC50 values; for IC50: rhPSMA 50 ng/well, substrate N-Acetyl-Asp-Glu, 37° C. 1 h
Experimental: as §1

T1 sequence (Q04609 44-750): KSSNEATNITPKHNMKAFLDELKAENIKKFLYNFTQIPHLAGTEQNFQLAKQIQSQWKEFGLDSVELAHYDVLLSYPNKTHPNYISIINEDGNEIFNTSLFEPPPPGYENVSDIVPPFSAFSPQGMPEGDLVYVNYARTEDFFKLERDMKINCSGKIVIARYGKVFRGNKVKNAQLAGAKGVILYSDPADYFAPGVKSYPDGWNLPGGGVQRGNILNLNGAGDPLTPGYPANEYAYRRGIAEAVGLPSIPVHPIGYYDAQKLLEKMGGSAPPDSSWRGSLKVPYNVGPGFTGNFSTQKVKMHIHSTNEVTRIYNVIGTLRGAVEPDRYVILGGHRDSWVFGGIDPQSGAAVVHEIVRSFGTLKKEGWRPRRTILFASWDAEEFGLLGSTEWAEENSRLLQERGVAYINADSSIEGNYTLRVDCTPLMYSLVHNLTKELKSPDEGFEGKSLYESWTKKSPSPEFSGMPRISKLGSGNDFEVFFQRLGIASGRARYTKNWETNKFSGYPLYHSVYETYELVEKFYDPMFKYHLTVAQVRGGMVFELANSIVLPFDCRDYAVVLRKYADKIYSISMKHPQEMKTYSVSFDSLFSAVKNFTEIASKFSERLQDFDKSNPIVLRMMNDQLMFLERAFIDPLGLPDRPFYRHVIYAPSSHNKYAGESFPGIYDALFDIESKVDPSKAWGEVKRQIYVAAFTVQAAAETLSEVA

IC50 [1]	Ratio to PSMA-617 [2]	IC50 [2]	SMILES	affinity, comparison in words ([2]; enzyme activity experiment, FIG. 1)
2.42 nM			NCc1ccc(C(=O)Nc2cccc(C(=O)NCCCC[C@H](NC(=O)N[C@@H](CCC(=O)O)C(=O)O)C(=O)O)n2)cc1	
	0.74	1.23 nM	O=C(O)CC[C@H](NC(=O)N[C@@H](CCCCNC(=O)[C@H](Cc1ccc2ccccc2c1)NC(=O)[C@H]1CC[C@]2(CC1)CN(C(=O)CN1CCN(CC(=O)O)CCN(CC(=O)O)CCN(CC(=O)O)CC1)CCO2)C(=O)O)C(=O)O [Example 9, (((S)-1-carboxy-5-((S)-3-(2-naphthyl)-2-((6S,9r)-4-(2-(4,7,10-tris(carboxymethyl)-1,4,7,10-tetraazacyclododecanyl)acetyl)-1-oxa-4-azaspiro[5.5]undecane-9-carboxamido)propanamido)pentyl)carbamoyl)-L-glutamic acid]	better affinity than compound x of Example 11
	7.85	13 nM	O=C(O)CC[C@H](NC(=O)N[C@@H](CCCCNC(=O)[C@H](Cc1ccc2ccccc2c1)NC(=O)[C@H]1CC[C@@]2(CC1)CN(C(=O)CN1CCN(CC(=O)O)CCN(CC(=O)O)CCN(CC(=O)O)CC1)CCO2)C(=O)O)C(=O)O [Example 11, (((S)-1-carboxy-5-((S)-3-(2-naphthyl)-2-((6R,9s)-4-(2-(4,7,10-tris(carboxymethyl)-1,4,7,10-tetraazacyclododecanyl)acetyl)-1-oxa-4-azaspiro[5.5]undecane-9-carboxamido)propanamido)pentyl)carbamoyl)-L-glutamic acid]	
